Here are results for 27 compounds from patent publication US20230074558A1, “DIMERIC COMPOUNDS AS STING AGONISTS” (Mersana Therapeutics, Inc., priority 2019, published 2023).

Common to all, as to format: cell-based
For assay [1], the target named is T1, human STING (homozygous HAQ allele) (Homo sapiens, UniProt Q86WV6, G230A/H232R/R293Q/R71H).
T1 construct: THP1-Dual™ Human Monocytes cells with the homozygous HAQ allele, known to be a natural variant allele of STING; host or cells: THP1-Dual human monocytes
T1 sequence (Q86WV6 whole entry R71H/G230A/H232R/R293Q): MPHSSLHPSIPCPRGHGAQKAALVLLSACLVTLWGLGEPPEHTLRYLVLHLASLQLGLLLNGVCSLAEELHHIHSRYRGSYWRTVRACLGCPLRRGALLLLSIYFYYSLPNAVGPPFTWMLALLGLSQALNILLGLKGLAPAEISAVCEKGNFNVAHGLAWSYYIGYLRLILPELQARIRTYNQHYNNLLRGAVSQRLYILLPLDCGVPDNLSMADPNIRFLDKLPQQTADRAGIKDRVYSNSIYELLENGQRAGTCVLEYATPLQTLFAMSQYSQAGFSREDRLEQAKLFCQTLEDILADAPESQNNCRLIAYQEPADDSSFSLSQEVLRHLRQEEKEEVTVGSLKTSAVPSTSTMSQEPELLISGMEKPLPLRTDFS
As to the kind of experiment: Activation of human STING signaling in THP1-Dual Human Monocytes cells, IRF3 luciferase reporter induction. The conditions noted are these: 24 hours incubation. How it is done:
(§1) THP1-Dual™ Human Monocytes cells with the homozygous HAQ allele, known to be a natural variant allele of STING occurring in ˜20% of the human population (Invivogen) have been engineered with two independent gene reporter systems: a secreted embryonic alkaline phosphatase (SEAP) reporter gene for NFkB activity, and secreted luciferase reporter for […] (IRF3) activity were used. 4×10^5 THP1-Dual™ cells were incubated with test Compounds in a 5-fold titration steps from 1 to 0.0128 μM in RPMI media with 10% FBS, for 24 hours at 37° C. with 5% CO2. Cell culture supernatants (20 μl) from each incubated sample was added to resuspended QUANTI-Blue™ Solution (Invivogen, 180 μl) in each well of a flat-bottom 96-well plate, then incubated for 2 h. NFkB levels were evaluated using a spectrophotometer at 620-655 nm.
(§2) To evaluate IRF3 reporter levels, cell culture supernatant (20 μl) from each incubated sample was added to QUANTI-Luc™ assay solution (Invivogen, 50 μl), and the luminescence was measured with a SpectraMax M3 spectrophotometer (Molecular Devices).
(§3) The EC50 value was determined from the dose response curve based on reference Compounds. Table A provides the results for IRF3 reporter induction THP1-Dual™ Human Monocytes cells and Table B provides the results for IRF3 reporter induction in THP1-Dual™ KI-hSTING-R232 Cells (“A” means <1 μM; “B” means ≥1 μM and <10 μM; “C” means ≥10 μM).
On the technique in general: A reporter such as luciferase makes a cellular process visible.

A further assay concerns the target T2, human STING (Homo sapiens, UniProt Q86WV6, G230A/H232R/R293Q/R71H).
T2 construct: host or cells: THP1-Dual cells, digitonin-permeabilized
The assay can be described thus: Activation of human STING signaling in permeabilized THP1-Dual cells, IRF3 induction. The note with it: digitonin-permeabilized THP1-Dual cells, 30 minutes on ice then 24 h. How it is done:
4×10^5 THP1-Dual™ cells (NF-κB-SEAP and IRF-Lucia luciferase Reporter Monocytes, Invivogen) were incubated with test Compounds in a 5-fold titration steps from […] in permeabilized buffer (50 mM HEPES pH 7.0, 100 mM KCl, 3 mM MgCl2, 85 mM sucrose, 0.2% BSA, 1 mM ATP, 0.1 mM GTP, 0.1 mM TTP, […]) for 30 minutes on ice. Cells were then washed and incubated in a fresh RPMI media with 10% FBS at 37° C. with 5% CO2 for 24 h. Cell culture supernatants from each sample were collected and NFkB and IRF3 were evaluated as above. Table B provides the results for IRF3 induction (“A” means <1 μM; “B” means ≥1 μM and <10 μM; “C” means ≥10 μM).

In the next assay the target is T3, R232 hSTING variant (Homo sapiens, UniProt Q86WV6, H232R).
T3 construct: host or cells: THP1-Dual KO-STING cells (knock-in: THP1-Dual KI-hSTING-R232)
T3 sequence (Q86WV6 whole entry H232R): as the sequence (Q86WV6 whole entry R71H/G230A/H232R/R293Q) above, with H71R, A230G, Q293R counted along it
The assay can be described thus: IRF3 reporter induction in THP1-Dual KI-hSTING-R232 Cells. The note with it: THP1-Dual KI-hSTING-R232 Cells (R232 haplotype). How it is done:
as §1, §2
NFkB and IRF3 reporter levels were also determined for THP1-Dual™ KI-hSTING-H232 Cells and THP1-Dual™ KI-hSTING-R232 Cells. THP1-Dual™ KI-hSTING-H232 Cells (R232H Haplotype) were generated from THP1-Dual™ KO-STING cells by knockin of the intronless coding sequence (from the ATG to TGA) of the R232H human STING variant (Invivogen). R232H has been identified as a natural variant allele of STING occurring in ˜14% of the human population. THP1-Dual™ KI-hSTING-R232 Cells (R232 Haplotype) were generated from THP1-Dual™ KO-STING cells by knockin of the intronless coding sequence (from the ATG to the TGA) of the R232 hSTING variant. Genomic studies indicate that this variant, which contains an arginine at position 232 (R232), is the most prevalent variant with an occurrence (homozygous allele) of ˜45-58% in the human population.
as §3

Some results are limits rather than exact numbers.

T2 sequence (Q86WV6 whole entry R71H/G230A/H232R/R293Q): as the sequence (Q86WV6 whole entry R71H/G230A/H232R/R293Q) above

As a reminder, the EC50 is the concentration needed to bring the measured effect to its halfway point. Read a high EC50 as lower potency in that assay. `O=C(O)CCC(=O)c1nc2ccc(/C=C\c3ccc4nc(C(=O)CCC(=O)O)sc4c3)cc2s1` [Compound 6, (Z)-4,4′-(ethene-1,2-diylbis(benzo[d]thiazole-6,2-diyl))bis(4-oxobutanoic acid)]: the EC50 (in assay [1]; on human STING) was not below 10 µM each time. Consider `O=C(O)CCC(=O)c1nc2ccc(-c3ccccc3-c3ccc4nc(C(=O)CCC(=O)O)sc4c3)cc2s1` [Compound 9, 4,4′-(1,2-phenylenebis(benzo[d]thiazole-6,2-diyl))bis(4-oxobutanoic acid)], for which the EC50 (in assay [1]; on human STING) was not below 10 µM in each case. For `O=C(O)CCC(=O)c1nc2ccc(NC(=O)COc3ccc4nc(C(=O)CCC(=O)O)sc4c3)cc2s1` [Compound 18], the EC50 in assay [1] is less than 1 µM. For the compound `O=C(O)CCC(=O)c1cc2ccc(NC(=O)Nc3ccc4cc(C(=O)CCC(=O)O)sc4c3)cc2s1` [Compound 25, 4,4′-((carbonylbis(azanediyl))bis(benzo[b]thiophene-6,2-diyl))bis(4-oxobutanoic acid)], the EC50 (in assay [1]; on human STING) was not below 10 µM in each case. Take `C=C(COc1cc2cc(C(=O)CCC(=O)O)sc2cc1OC)COc1cc2cc(C(=O)CCC(=O)O)sc2cc1OC` [Compound 40, 4,4′-(((2-methylenepropane-1,3-diyl)bis(oxy))bis(6-methoxybenzo[b]-thiophene-5,2-diyl))bis(4-oxobutanoic acid)]: the EC50 was less than 1 µM in assay [1] and not below 10 µM on R232 hSTING variant.

On to `C=C(COc1c(OC)cc2sc(C(=O)CCC(=O)O)cc2c1F)COc1c(OC)cc2sc(C(=O)CCC(=O)O)cc2c1F` [Compound 202, 4,4′-(((2-methylenepropane-1,3-diyl)bis(oxy))bis(4-fluoro-6-methoxybenzo[b]-thiophene-5,2-diyl))bis(4-oxobutanoic acid)], for which the half-maximal effective concentration (EC50) (in assay [1]; at R232 hSTING variant) was less than 1 µM throughout.

On to `COc1cc2sc(C(=O)CCC(=O)O)cc2c(F)c1OC/C=C/COc1c(OC)cc2sc(C(=O)CCC(=O)O)cc2c1F` [Compound 203, (E)-4,4′-((but-2-ene-1,4-diylbis(oxy))bis(4-fluoro-6-methoxybenzo[b]thiophene-5,2-diyl))bis(4-oxobutanoic acid)], for which the EC50 in assay [1] was less than 1 µM; at R232 hSTING variant it was 1 to 10 µM. Turning to `COc1cc2sc(C(=O)CCC(=O)O)cc2c(F)c1OC/C=C\COc1c(OC)cc2sc(C(=O)CCC(=O)O)cc2c1F` [Compound 204, (Z)-4,4′-((but-2-ene-1,4-diylbis(oxy))bis(4-fluoro-6-methoxybenzo[b]-thiophene-5,2-diyl))bis(4-oxobutanoic acid)], the half-maximal effective concentration (EC50) (in assay [1]; on R232 hSTING variant) was less than 1 µM each time. On to `COc1cc2sc(C(=O)CCC(=O)O)cc2cc1NC(=O)C1(C(=O)Nc2cc3cc(C(=O)CCC(=O)O)sc3cc2OC)CC1` [Compound 205], for which the concentration giving a half-maximal response (EC50) (in assay [1]; at R232 hSTING variant) was not below 10 µM throughout. For `COc1cc2sc(C(=O)CCC(=O)O)cc2cc1NC(=O)CCOc1c(OC)cc2sc(C(=O)CCC(=O)O)cc2c1F` [Compound 206], the EC50 in assay [1] was not below 10 µM; at R232 hSTING variant, less than 1 µM. For `C=C(COc1cc2cc(C(=O)CCC(=O)O)sc2cc1OC)COc1c(OC)cc2sc(C(=O)CCC(=O)O)cc2c1F` [Compound 207, 4-(5-((2-(((2-(3-carboxypropanoyl)-4-fluoro-6-methoxybenzo[b]thiophen-5-yl)oxy)methyl)allyl)oxy)-6-methoxybenzo[b]thiophen-2-yl)-4-oxobutanoic acid] the same measures were less than 1 µM and less than 1 µM. Taken in the same sequence, the figures for `COc1cc2sc(C(=O)CCC(=O)O)cc2c(F)c1OCC(=CC(=O)F)COc1c(OC)cc2sc(C(=O)CCC(=O)O)cc2c1F` [Compound 208] were not below 10 µM and not below 10 µM.

In the case of `COc1cc2sc(C(=O)CCC(=O)O)cc2c(F)c1OCC(=CC(=O)OC(C)(C)C)COc1c(OC)cc2sc(C(=O)CCC(=O)O)cc2c1F` [Compound 209], the EC50 (in assay [1]; at R232 hSTING variant) was not below 10 µM throughout. For `COc1cc2sc(C(=O)CCC(=O)O)cc2c(F)c1OCC(=CCO)COc1c(OC)cc2sc(C(=O)CCC(=O)O)cc2c1F` [Compound 210, 4,4′-(((2-(2-hydroxyethylidene)propane-1,3-diyl)bis(oxy))bis(4-fluoro-6-methoxybenzo[b]thiophene-5,2-diyl))bis(4-oxobutanoic acid)], the EC50 (in assay [1]; on R232 hSTING variant) was less than 1 µM throughout. On to `COc1cc2sc(C(=O)CCC(=O)O)cc2c(F)c1OCc1ccccc1COc1c(OC)cc2sc(C(=O)CCC(=O)O)cc2c1F` [Compound 211, 4,4′-(((1,2-phenylenebis(methylene))bis(oxy))bis(4-fluoro-6-methoxybenzo[b]thiophene-5,2-diyl))bis(4-oxobutanoic acid)], for which the EC50 (in assay [1]; on R232 hSTING variant) was less than 1 µM each time.

Turning to `COc1cc2sc(C(=O)CCC(=O)O)cc2cc1NC(=O)C1(C(=O)Nc2cc3cc(C(=O)CCC(=O)O)sc3cc2OC)CCOCC1` [Compound 218], the concentration giving a half-maximal response (EC50) (in assay [1]; at R232 hSTING variant) was not below 10 µM throughout. With `COc1cc2sc(C(=O)CCC(=O)O)cc2cc1CCC(=O)Nc1cc2cc(C(=O)CCC(=O)O)sc2cc1OC` [Compound 219], the EC50 (in assay [1]; on R232 hSTING variant) was not below 10 µM in each case. Take `COc1cc2sc(C(=O)CCC(=O)O)cc2cc1CCCC(=O)Nc1cc2cc(C(=O)CCC(=O)O)sc2cc1OC` [Compound 220]: the concentration giving a half-maximal response (EC50) (in assay [1]; at R232 hSTING variant) was not below 10 µM in each case. Turning to `COc1cc2sc(C(=O)CCC(=O)O)cc2cc1NC(=O)C1CCN(c2cc3cc(C(=O)CCC(=O)O)sc3cc2OC)C1=O` (stereo not shown) [Compound 221], the EC50 (in assay [1]; on R232 hSTING variant) was not below 10 µM throughout. `COc1cc2sc(C(=O)CCC(=O)O)cc2cc1NC(=O)COc1c(OC)cc2sc(C(=O)CCC(=O)O)cc2c1F` [Compound 222]: the EC50 (in assay [1]; at R232 hSTING variant) was not below 10 µM in each case.

As to `COc1cc2sc(C(=O)CCC(=O)O)cc2cc1NC(=O)C1(C(=O)Nc2cc3cc(C(=O)CCC(=O)O)sc3cc2OC)CCC1` [Compound 223], the half-maximal effective concentration (EC50) (in assay [1]; at R232 hSTING variant) was not below 10 µM each time. Consider `COc1cc2sc(C(=O)CCC(=O)O)cc2cc1NC(=O)CC(=O)Nc1cc2cc(C(=O)CCC(=O)O)sc2cc1OC` [Compound 224], for which the EC50 (in assay [1]; at R232 hSTING variant) was not below 10 µM each time. For the compound `COc1cc2sc(C(=O)CCC(=O)O)cc2cc1NCCC(=O)Nc1cc2cc(C(=O)CCC(=O)O)sc2cc1OC` [Compound 226], the EC50 (in assay [1]; on R232 hSTING variant) was not below 10 µM in each case. For `COc1cc2sc(C(=O)CCC(=O)O)cc2c(F)c1OCC#CCOc1c(OC)cc2sc(C(=O)CCC(=O)O)cc2c1F` [Compound 227], the EC50 (in assay [1]; at R232 hSTING variant) was not below 10 µM throughout.

For `COc1cc2sc(C(=O)CCC(=O)O)cc2cc1/C=C/C(=O)Nc1cc2cc(C(=O)CCC(=O)O)sc2cc1OC` [Compound 229], the concentration for a half-maximal effect (EC50) (in assay [1]; on R232 hSTING variant) was not below 10 µM throughout.

Consider `COC(=O)CCC(=O)c1cc2c(F)c(OCC3(COc4c(OC)cc5sc(C(=O)CCC(=O)OC)cc5c4F)COC3)c(OC)cc2s1` [Compound 262], for which the EC50 in assay [1] is not below 10 µM. With `C=C(COc1c(OC)cc2sc(C(=O)CCC(=O)OC)nc2c1F)COc1c(OC)cc2sc(C(=O)CCC(=O)OC)nc2c1F` [compound 264], the values for the EC50 (in assay [1]; on R232 hSTING variant) were less than 1 µM and not below 10 µM, respectively.
